Article PMC9405123, “Design, Synthesis and Mechanistic Studies of Novel Isatin-Pyrazole Hydrazone Conjugates as Selective and Potent Bacterial MetAP Inhibitors” (Antibiotics, 2022)
In brackets after ≈: the same amount, converted by molar mass. Read-outs that look alike come from different tables or passages of the source.

What was measured:
EcMetAP1 = system: EcMetAP1; parameters: method as in PMID 15506752; settings: Co(II) as the cofactor; cited from earlier work
LG20 = assay: MIC on environmental MDR isolate (microdilution); settings: Enterobacter, isolate LG20 Enterobacter sp.
E. coli [1] = assay: Combination study with AMP or CIP; settings: combination PS9 + AMP
LG71 = assay: MIC on environmental MDR isolate (microdilution); settings: Enterobacter cloacae
JST28 = assay: MIC on environmental MDR isolate (microdilution); settings: Escherichia coli
B. subtilis [2] = assay: Minimum inhibitory concentration (broth dilution); format: cell-based; settings: Bacillus subtilis, alone
SD6 = assay: MIC on environmental MDR isolate (microdilution); settings: Escherichia coli, isolate SD6 E. coli
SH28 = assay: MIC on environmental MDR isolate (microdilution); settings: Aeromonas caviae
S. aureus [3] = assay: Minimum inhibitory concentration (broth dilution); format: cell-based; settings: Staphylococcus aureus, alone
JST68 = assay: MIC on environmental MDR isolate (microdilution); settings: Escherichia coli
LG33 = assay: MIC on environmental MDR isolate (microdilution); settings: Enterobacter
P. aeruginosa [4] = assay: Combination study with AMP or CIP; settings: combination PS9 + AMP
HK41 = assay: MIC on environmental MDR isolate (microdilution); settings: Enterobacter cloacae
E. coli [5] = assay: Minimum inhibitory concentration (broth dilution); format: cell-based, Escherichia coli; settings: alone
K. pneumoniae [6] = assay: Growth inhibition screening (broth dilution); format: cell-based, Klebsiella pneumonia; settings: Klebsiella pneumoniae
Procedure: (§1) In vitro screening of the compounds (PS1–14) was performed to assess the antibacterial activity against three Gram-positive (Staphylococcus aureus, Enterococcus faecalis and Bacillus subtilis,) and three Gram-negative (Pseudomonas aeruginosa, Klebsiella pneumonia and Escherichia coli) bacterial strains using the standard NCCLS broth dilution assay. The study’s standard drugs were ciprofloxacin (CIP) and ampicillin (AMP). Compounds were dissolved in a polar solvent (DMSO) and distributed into a 96-well plate in 200 µL of nutrient broth medium, with a final concentration of the compounds […] in each well. The bacterial cells (about 2.5 × 10^5 cells/mL) were inoculated into each well and incubated at 37 °C overnight. After incubation, the growth was measured by turbidity of the culture at 590 nm by spectrophotometer.

HK1 = assay: MIC on environmental MDR isolate (microdilution)
HK43 = assay: MIC on environmental MDR isolate (microdilution); settings: Exiguobacterium mexicanum
P. aeruginosa [7] = assay: Growth inhibition screening (broth dilution); format: cell-based, Pseudomonas aeruginosa; settings: Pseudomonas aeruginosa
Procedure: as §1

HK91 = assay: MIC on environmental MDR isolate (microdilution); settings: Ralstonia
S. aureus [8] = assay: Growth inhibition screening (broth dilution); format: cell-based, Staphylococcus aureus; settings: Staphylococcus aureus
Procedure: as §1

K. pneumoniae [9] = assay: Minimum inhibitory concentration (broth dilution); format: cell-based, Klebsiella pneumonia; settings: Klebsiella pneumoniae, alone, read-out: MIC
E. coli [10] = assay: Growth inhibition screening (broth dilution); format: cell-based, Escherichia coli; settings: Escherichia coli
Procedure: as §1

E. faecalis [11] = assay: Growth inhibition screening (broth dilution); format: cell-based, Enterococcus faecalis; settings: Enterococcus faecalis
Procedure: as §1

JST63 = assay: MIC on environmental MDR isolate (microdilution)
LG51 = assay: MIC on environmental MDR isolate (microdilution); settings: Escherichia coli
HK32 = assay: MIC on environmental MDR isolate (microdilution); settings: Enterobacter cloacae
E. faecalis [12] = assay: Minimum inhibitory concentration (broth dilution); format: cell-based; settings: Enterococcus faecalis, alone
JST71 = assay: MIC on environmental MDR isolate (microdilution); settings: Enterobacter
S. aureus [13] = assay: Combination study with AMP or CIP
SH34 = assay: MIC on environmental MDR isolate (microdilution); settings: Serratia marcescens
SD5 = assay: MIC on environmental MDR isolate (microdilution); settings: Escherichia coli, isolate SD5 E. coli
JST61 = assay: MIC on environmental MDR isolate (microdilution); settings: Pantoea agglomerans
P. aeruginosa [14] = assay: Minimum inhibitory concentration (broth dilution); format: cell-based; settings: Pseudomonas aeruginosa, alone
LG24 = assay: MIC on environmental MDR isolate (microdilution); settings: Escherichia coli
K. pneumoniae [15] = assay: Combination study with AMP or CIP
E. faecalis [16] = assay: Combination study with AMP or CIP
B. subtilis [17] = assay: Growth inhibition screening (broth dilution); format: cell-based, Bacillus subtilis; settings: Bacillus subtilis
Procedure: as §1

JST78 = assay: MIC on environmental MDR isolate (microdilution); settings: Escherichia coli
LG1 = assay: MIC on environmental MDR isolate (microdilution)
[18] = system: human red blood cells (hRBCs); assay: Hemolytic activity; format: cell-based
Procedure: The compound PS9 was evaluated for hemolytic effect on human RBCs. In brief, RBCs suspension 10% (v/v) cleaned with 1 × PBS and resuspended again in 1 × PBS (pH 7.4). […] The samples were centrifuged and absorbance of the supernatant was taken at 415 nm to obtain the percentage of RBCs lysis. Triton X-100 with 1% (v/v) was used as a positive control. Percentage of RBCs lysis was calculated as:% RBCs lysis = (OD415nm sample − OD415nm PBS)/(OD415nm Triton X-100 1% − OD415nm PBS)(1)

For `O=C(Nc1nccs1)C(=O)NC1CCCC1` [A, N1-cyclopentyl-N2-(thiazol-2-yl)oxalamide], the IC50 (EcMetAP1) is listed as 67 nM.
In the case of `CC1(C)S[C@@H]2[C@H](NC(=O)[C@H](N)c3ccccc3)C(=O)N2[C@H]1C(=O)O` [AMP, ampicillin, reference compound], the MIC (LG20) is reported as 32 µg/mL (≈ 91.6 µM), the “MIC in Combination” value (E. coli [1]) is reported as 0.25 µg/mL and the MIC (LG71) is reported as 512 µg/mL (≈ 1470 µM). It also gave an MIC (JST28) of 1020 µg/mL (≈ 2930 µM), an MIC (B. subtilis [2]) of 0.25 µg/mL (≈ 0.715 µM) and an MIC (SD6) of 1000 µg/mL (≈ 2860 µM). It also gave an MIC (SH28) of 16 µg/mL (≈ 45.8 µM), an MIC (S. aureus [3]) of 0.25 µg/mL (≈ 0.715 µM) and an MIC (JST68) of 64 µg/mL (≈ 183 µM). For the same compound, the MIC (LG33) was 8 µg/mL (≈ 22.9 µM), the “MIC in Combination” value (P. aeruginosa [4]) was 0.25 µg/mL and the MIC (HK41) was 256 µg/mL (≈ 733 µM). It also gave an MIC (E. coli [5]; Escherichia coli, read-out: MIC) of 1 µg/mL (≈ 2.86 µM), an MIC (E. coli [5]) of 1 µg/mL (≈ 2.86 µM) and an inhibition at 250 µg/mL (K. pneumoniae [6]) of 100%. It also gave an MIC (HK1) of 256 µg/mL (≈ 733 µM), an MIC (HK43) of 1020 µg/mL (≈ 2930 µM) and an inhibition at 250 µg/mL (P. aeruginosa [7]) of 100%. For the same compound, the MIC (HK91) was 8 µg/mL (≈ 22.9 µM), the inhibition at 250 µg/mL (S. aureus [8]) was 100% and the MIC (K. pneumoniae [9]) was 2 µg/mL (≈ 5.72 µM). For the same compound, the inhibition at 250 µg/mL (E. coli [10]) was 100%, the inhibition at 250 µg/mL (E. faecalis [11]) was 100% and the MIC (JST63) was 128 µg/mL (≈ 366 µM). For the same compound, the MIC (LG51) was 1020 µg/mL (≈ 2930 µM), the MIC (HK32) was 1020 µg/mL (≈ 2930 µM) and the MIC (E. faecalis [12]) was 16 µg/mL (≈ 45.8 µM). For the same compound, the MIC (JST71) was 1020 µg/mL (≈ 2930 µM), the “MIC in Combination” value (S. aureus [13]; combination PS6 + AMP) was 0.0625 µg/mL and the “MIC in Combination” value (S. aureus [13]; combination PS9 + AMP) was 0.0625 µg/mL. The MIC (SH34) was 8 µg/mL (≈ 22.9 µM), the MIC (SD5) was 32 µg/mL (≈ 91.6 µM) and the MIC (JST61) was 128 µg/mL (≈ 366 µM). For the same compound, the MIC (P. aeruginosa [14]) was 1 µg/mL (≈ 2.86 µM), the MIC (LG24) was under 2 µg/mL and the “MIC in Combination” value (K. pneumoniae [15]; combination PS6 + AMP) was 0.25 µg/mL. For the same compound, the “MIC in Combination” value (K. pneumoniae [15]; combination PS9 + AMP) was 0.5 µg/mL, the “MIC in Combination” value (E. faecalis [16]; combination PS6 + AMP) was 0.50 µg/mL and the “MIC in Combination” value (E. faecalis [16]; combination PS9 + AMP) was 0.5 µg/mL. It also gave an inhibition at 250 µg/mL (B. subtilis [17]) of 100% and an MIC (JST78) of over 1020 µg/mL.
With `CO/N=C(\C(=O)N[C@@H]1C(=O)N2C(C(=O)O)=C(COC(C)=O)CS[C@H]12)c1csc(N)n1` [CTX, cefotaxime] the MIC (LG20) was 32 µg/mL (≈ 70.3 µM), the MIC (LG71) was 1020 µg/mL (≈ 2250 µM) and the MIC (JST28) was 8 µg/mL (≈ 17.6 µM). For the same compound, the MIC (SD6) was 1000 µg/mL (≈ 2200 µM), the MIC (SH28) was under 2 µg/mL and the MIC (JST68) was 512 µg/mL (≈ 1120 µM). For the same compound, the MIC (LG33) was 8 µg/mL (≈ 17.6 µM), the MIC (HK41) was 32 µg/mL (≈ 70.3 µM) and the MIC (HK1) was 128 µg/mL (≈ 281 µM). The MIC (HK43) was 1020 µg/mL (≈ 2250 µM), the MIC (HK91) was 8 µg/mL (≈ 17.6 µM) and the MIC (JST63) was 128 µg/mL (≈ 281 µM). It also gave an MIC (LG51) of 64 µg/mL (≈ 141 µM), an MIC (HK32) of 256 µg/mL (≈ 562 µM) and an MIC (JST71) of 1020 µg/mL (≈ 2250 µM). For the same compound, the MIC (LG1) was 16 µg/mL (≈ 35.1 µM), the MIC (SH34) was 8 µg/mL (≈ 17.6 µM) and the MIC (SD5) was 1000 µg/mL (≈ 2200 µM). It also gave an MIC (JST61) of 256 µg/mL (≈ 562 µM), an MIC (LG24) of 64 µg/mL (≈ 141 µM) and an MIC (JST78) of 128 µg/mL (≈ 281 µM).
For Triton-X 100 [reference compound], the hemolysis [18] was 100%.
